Legend:
human platelets [1] = experiment: aggregation induced by 5-hydroxytryptamine, human platelets in vitro; type: cell-based
Description: (§1) All those results agreeing, the following study was carried on human platelets in vitro, before proceeding to therapeutic applications. It relates to the effects of the compound according to the invention, in regard to aggregation induced by thrombin, collagen, adrenaline, and 5-hydroxytryptamine, and with regard to the release of carbon 14-marked 5-hydroxytryptamine, by thrombin, adrenaline and collagen.

human platelets [2] = experiment: aggregation induced by adrenaline, human platelets in vitro; type: cell-based
Description: as §1

human platelets [3] = experiment: platelet release reaction induced by adrenaline, human platelets; type: cell-based; conditions: human platelets in vitro; witnessed by inhibition of second phase of aggregation
Description: as §1

platelets [4] = experiment: release of carbon 14-marked 5-hydroxytryptamine induced by collagen; type: cell-based, rabbits; conditions: rabbit platelets
Description: (§2) The following pharmacological results illustrate the activity of the compound on platelet aggregation, the potentiation of such aggregation, the uptake of serotonin (the chemical name for which is 5-hydroxytryptamine) by the platelets and the release reaction of such platelets. This study was carried out on rabbits:
(§3) The compound counteracts the action of collagen on the platelets.
The compound of the invention is 13 times more powerful than aspirin, which is well known for inhibiting the platelet release reaction.

platelets [5] = experiment: potentiation (induced by adrenaline) of platelet aggregation caused by adenosinephosphate; type: cell-based, rabbits; conditions: rabbit platelets
Description: as §2
It is 20 times less powerful than PHENTOLAMINE as an adrenaline antagonist.

human platelets [6] = experiment: uptake of carbon 14-marked 5-hydroxytryptamine, human platelets in vitro; type: cell-based
vascular thrombus = experiment: in vivo formation of a caused vascular thrombus; conditions: animals
[7] = system: central dopaminergic receptors; experiment: action on central dopaminergic receptors; apomorphine climbing and stereotypies; type: in vivo, rodents
Source text: Although under those conditions the pathogenetic role of platelet dysfunction has not been definitively established, various medicaments which are assumed to act by interfering with the platelet function have been widely used. Reference may be made for example to aspirin, dipyridamole and sulphinpyrazone. […] It can be said therefore that the undesirable neurological effects are very limited with that medicament.

platelets [8] = experiment: potentiation (induced by 5-hydroxytryptamine) of platelet aggregation caused by adenosinephosphate; type: cell-based, rabbits; conditions: rabbit platelets
Description: as §2
It is 63 times less powerful than METHYSERGIDE as a 5-hydroxytryptamine antagonist.

rabbit platelets = experiment: release of carbon 14-marked 5-hydroxytryptamine induced by adrenaline; type: cell-based; conditions: Oryctolagus cuniculus, Platelet, read-out: IC50, inhibition of release of carbon 14-marked 5-hydroxytryptamine induced by adrenaline
Source text: (§4) The following pharmacological results illustrate the activity of the compound on platelet aggregation, the potentiation of such aggregation, the uptake of serotonin (the chemical name for which is 5-hydroxytryptamine) by the platelets and the release reaction of such platelets.

human platelets [9] = experiment: release of marked 5-hydroxytryptamine induced by collagen, human platelets; type: cell-based; conditions: human platelets in vitro
Description: as §1

platelets [10] = experiment: uptake of carbon 14-marked 5-hydroxytryptamine by platelets; type: cell-based; conditions: Oryctolagus cuniculus, Platelet; rabbit platelets
Source text: as §4

platelets [11] = experiment: platelet aggregation caused by adenosine phosphate; type: cell-based; conditions: in vitro, rabbits
Description: as §2
An inhibiting effect on the aggregation of platelets, caused by adenosine phosphate is observed.

human platelets [12] = experiment: release of carbon 14-marked 5-hydroxytryptamine induced by thrombin, human platelets; type: cell-based; conditions: human platelets in vitro
Description: as §1

alpha-2 receptors = biological target: T1, alpha-2 receptors (Oryctolagus cuniculus, UniProt Q5ZQK3); experiment: potentiation (induced by CLONIDINE) of platelet aggregation caused by adenosinephosphate; type: cell-based, rabbits; conditions: rabbit platelets
T1 construct: potentiation (induced by CLONIDINE) of platelet aggregation caused by adenosinephosphate; endogenous in cells; host or cells: rabbit blood platelets
T1 sequence (Q5ZQK3 1-451): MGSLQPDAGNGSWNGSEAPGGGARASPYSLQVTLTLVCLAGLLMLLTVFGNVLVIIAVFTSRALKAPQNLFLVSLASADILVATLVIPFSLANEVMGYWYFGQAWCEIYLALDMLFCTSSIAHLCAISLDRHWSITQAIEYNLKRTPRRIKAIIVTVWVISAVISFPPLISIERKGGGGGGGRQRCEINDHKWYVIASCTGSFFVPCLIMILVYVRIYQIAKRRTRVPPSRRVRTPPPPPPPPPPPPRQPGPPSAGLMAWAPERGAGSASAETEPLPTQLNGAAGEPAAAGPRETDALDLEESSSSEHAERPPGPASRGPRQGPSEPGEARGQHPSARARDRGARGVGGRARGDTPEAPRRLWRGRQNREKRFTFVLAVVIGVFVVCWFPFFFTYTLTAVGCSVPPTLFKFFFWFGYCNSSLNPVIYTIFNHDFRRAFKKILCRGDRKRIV
Source text: as §4

[13] = biological target: T2, alpha-2 receptors (Oryctolagus cuniculus); experiment: as above; type: cell-based, rabbits; conditions: rabbit platelets; read-out: IC50, anti-adrenergic effect (potentiation induced by CLONIDINE of platelet aggregation caused by adenosinephosphate)
T2 construct: potentiation (induced by CLONIDINE) of platelet aggregation caused by adenosinephosphate; endogenous in cells; host or cells: rabbit blood platelets
Source text: as §4

human platelets [14] = experiment: aggregation induced by thrombin, human platelets in vitro; type: cell-based; conditions: thrombin 3.3 units/ml PRP
Description: as §1

human platelets [15] = experiment: aggregation induced by collagen, human platelets in vitro; type: cell-based
Description: as §1

platelets [16] = experiment: platelet aggregation induced by collagen; type: cell-based, rabbits; conditions: rabbit platelets
Description: as §2, §3
a. prolongation of the typical latency phase which precedes aggregation of the platelets induced by collagen,
b. inhibition of the aggregation effect induced by collagen, and […]

C=CCN1CCCC1CNC(=O)c1cc(S(=O)(=O)NC)c(N)cc1OC (stereo not shown) [the compound, N-(1-allyl-2-pyrrolidinylmethyl) 2-methoxy 4-amino 5-methylsulphamoyl benzamide]
aggregation of platelets induced by 5-hydroxytryptamine (human platelets [1]): inhibits | first and second phases of aggregation of platelets induced by adrenaline (human platelets [2]): inhibits both | release reaction of the platelets induced by adrenaline (human platelets [3]): inhibits | IC50 (platelets [4]; Oryctolagus cuniculus, Platelet, read-out: IC50, inhibition of release of carbon 14-marked 5-hydroxytryptamine induced by collagen): 1.8 µM | times more powerful than aspirin, platelet release reaction (platelets [4]; collagen-induced release): 13 times | IC50 (platelets [5]; Oryctolagus cuniculus, Platelet, read-out: IC50, inhibition of potentiation (induced by adrenaline) of platelet aggregation caused by adenosinephosphate): 10 µM | times less powerful than PHENTOLAMINE as an adrenaline antagonist (platelets [5]): 20 times | uptake of carbon 14-marked 5-hydroxytryptamine by platelets (human platelets [6]): does not influence | conditions of formation of a caused vascular thrombus (anti-aggregating effect) (vascular thrombus): modifies the conditions of formation | action on the central dopaminergic receptors ([7]; animals): only a very weak action | doses to counteract apomorphine effects (climbing and stereotypies) ([7]; rodents): high doses are required | IC50 (platelets [8]; Oryctolagus cuniculus, Platelet, read-out: IC50, inhibition of potentiation (induced by 5-hydroxytryptamine) of platelet aggregation caused by adenosinephosphate): 19 µM | times less powerful than METHYSERGIDE as a 5-hydroxytryptamine antagonist (platelets [8]): 63 times | IC50 (rabbit platelets): 100 µM | release of marked 5-hydroxytryptamine induced by collagen (human platelets [9]): inhibits | IC50 (platelets [10]): > 100 µM | platelet aggregation caused by adenosine phosphate (platelets [11]): inhibits | release of carbon 14-marked 5-hydroxytryptamine induced by thrombin (human platelets [12]): inhibits | activity relative to MIANSERINE as an alpha-2 antagonist (alpha-2 receptors): twice as active | IC50 [13]: 29.5 µM | primary aggregation of platelets induced by thrombin (human platelets [14]): does not influence | second phase of aggregation induced by thrombin (human platelets [14]): inhibits | aggregation of platelets induced by collagen (human platelets [15]): inhibits | aggregation effect induced by collagen (platelets [16]): inhibition | latency phase preceding aggregation of platelets induced by collagen (platelets [16]): prolongation

— patent US4607047A, “N-(allyl-2-pyrrolidinylmethyl) 2-methoxy-4-amino-5-methylsulfamoyl benzamide anti platelets aggregation agent” (Societe d'Etudes Scientifiques et Industrielles de …, priority 1983, dated 1986)
